Reference: paper PMC10786919, “Design-rules for stapled peptides with in vivo activity and their application to Mdm2/X antagonists” (Nature Communications, 2024)
Positions of bridges follow the written chain, without caps; N, C: chain ends. Non-standard residues stand in square brackets, D forms with d. Residues, ends and D or L forms follow the SMILES beside them. tBuAla = CC(C)(C)C[C@H](N)C(=O)O; R8 = C=CCCCCCC[C@@](C)(N)C(=O)O; R5 = C=CCCC[C@@](C)(N)C(=O)O; S5 = C=CCCC[C@](C)(N)C(=O)O; Ahx = NCCCCCC(=O)O

Legend:
Format in all cases: cell-based
HCT116 cells = assay: Lactate dehydrogenase (LDH) release assay
Procedure, shortened: (§1)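 HCT116 cells stably carrying a p53-responsive β-lactamase reporter, seeded at 8000 cells/well, exposed to compound with 0.5% final DMSO. LDH release read with the CytoTox-ONE membrane integrity kit. Values are geometric means of at least three biological replicates.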

[1] = Lactate dehydrogenase (LDH) release assay; settings: LDH: Cytotoxicity assay EC50
Procedure, shortened: as §1

[2] = test system: Jump-In T-REx CHO-K1 BLA cells; assay: cells; settings: 0% FBS 4Hr; for EC50: read-out: TETCHO: Counterscreen EC50
Description: This assay was based on Jump-In™ T-REx™ CHO-K1 BLA cells containing a stably integrated β-lactamase under the control of an inducible cytomegalovirus (CMV) promoter. Cells were maintained in Dulbecco’s […] Eagle Medium (DMEM) with 10% fetal bovine serum (FBS), Blasticidin, and Penicillin/Streptomycin and then transferred to 1.5 ml freezing vials and stored under liquid nitrogen in growth media containing 5% DMSO. […] Cells were seeded into a 384-well plate at a density of 4000 cells per well. Peptides were then dispensed to each well using a liquid handler, ECHO 555 and incubated for 16 h. The final working concentration of DMSO was 0.5%. β-lactamase activity was detected using the ToxBLAzer Dual Screen (Invitrogen), as per the manufacturer’s instructions. Measurements were carried out using the Envision multiplate reader (Perkin–Elmer). Counterscreen activity was defined as the amount of β-lactamase activity induced by tetracycline. Measurements were taken a minimum of three times (biological replicates) and values are reported as geometric means of the replicates.

[3] = test system: p53 responsive β-lactamase reporter in HCT116 cells; assay: cells; settings: 0% FBS 4Hr; read-out: p53 reporter assay EC50
Procedure, shortened: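 Read-out used the ToxBLAzer Dual Screen for β-lactamase driven by a stably integrated p53-responsive reporter. Assay: 8000 HCT116 cells per well at 0.5% final DMSO. Reported numbers are geometric means over a minimum of three biological replicates.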

SMILES: CC(=O)N[C@H](C(=O)N[C@@H](CO)C(=O)N[C@@H](Cc1ccccc1)C(=O)N[C@]1(C)CCCC=CCCC[C@](C)(C(=O)N[C@@H](CC(C)C)C(=O)N[C@@H](CC(C)C)C(=O)N2CCC[C@H]2C(=O)N[C@@H](CCC(N)=O)C(=O)N[C@@H](CC(N)=O)C(=O)N[C@@H](Cc2ccccc2)C(N)=O)NC(=O)[C@H](Cc2c[nH]c3ccccc23)NC(=O)[C@H](Cc2ccc(O)cc2)NC(=O)[C@H](CCC(=O)O)NC1=O)[C@@H](C)O [MP-1173] (Ac-TSF[R5]EYW[R5]LLPQNF-NH2; staple 4-8)
- LDH: Cytotoxicity assay % Effect (HCT116 cells): 16.65%
- EC50 [1]: > 50 µM
- TETCHO: Counterscreen % Effect [2]: 47.5%
- EC50 [2]: 28.3 µM
- EC50 [3]: 12.5 µM

SMILES: CC(=O)N[C@@H](CCCCN)C(=O)N[C@@H](CCCCN)C(=O)N[C@H](C(=O)N[C@@H](CO)C(=O)N[C@@H](Cc1ccccc1)C(=O)N[C@]1(C)CCCCCCC=CCCC[C@@](C)(C(=O)N[C@@H](CCC(=O)O)C(N)=O)NC(=O)[C@H](CC(C)(C)C)NC(=O)[C@H](CC(C)C)NC(=O)[C@H](C)NC(=O)[C@H](Cc2c[nH]c3ccccc23)NC(=O)[C@H](Cc2ccc(O)cc2)NC(=O)[C@H](CCC(=O)O)NC1=O)[C@@H](C)O [MP-1159] (Ac-KKTSF[R8]EYWAL[tBuAla][S5]E-NH2; staple 6-13)
- LDH: Cytotoxicity assay % Effect (HCT116 cells): -1.606%
- EC50 [1]: > 50 µM
- TETCHO: Counterscreen % Effect [2]: 44.44%
- EC50 [2]: 49.2 µM
- EC50 [3]: 5.08 µM

SMILES: CC(=O)N[C@H](C(=O)N[C@@H](CO)C(=O)N[C@@H](Cc1ccccc1)C(=O)NC(C)(C)C(=O)N[C@@H](CCC(=O)O)C(=O)N[C@@H](Cc1ccc(O)cc1)C(=O)N[C@@H](Cc1c[nH]c2ccccc12)C(=O)N[C@@H](C)C(=O)N[C@@H](CC(C)C)C(=O)N[C@@H](CC(C)C)C(=O)NC(C)(C)C(=O)N[C@@H](CCC(=O)O)C(N)=O)[C@@H](C)O [MP-1176]
- LDH: Cytotoxicity assay % Effect (HCT116 cells): 12.95%
- EC50 [1]: > 50 µM
- TETCHO: Counterscreen % Effect [2]: -0.7808%
- EC50 [2]: > 50 µM
- EC50 [3]: > 50 µM

SMILES: CC(=O)N[C@@H](CCCNC(=N)N)C(=O)N[C@@H](CCCNC(=N)N)C(=O)N[C@@H](CCCNC(=N)N)C(=O)NCCCCCC(=O)N[C@H](C(=O)N[C@@H](CO)C(=O)N[C@@H](Cc1ccccc1)C(=O)N[C@]1(C)CCCCCCC=CCCC[C@@](C)(C(=O)N[C@@H](CCC(=O)O)C(=O)N[C@@H](CC(N)=O)C(=O)N[C@@H](Cc2ccc(O)cc2)C(N)=O)NC(=O)[C@H](CC(C)C)NC(=O)[C@H](CC(C)C)NC(=O)[C@H](C)NC(=O)[C@H](Cc2c[nH]c3ccccc23)NC(=O)[C@H](Cc2ccc(O)cc2)NC(=O)[C@H](CCC(=O)O)NC1=O)[C@@H](C)O [MP-012] (Ac-RRR[Ahx]TSF[R8]EYWALL[S5]ENY-NH2; staple 8-15)
- LDH: Cytotoxicity assay % Effect (HCT116 cells): 36.73%
- EC50 [1]: > 50 µM
- TETCHO: Counterscreen % Effect [2]: 23.79%
- EC50 [2]: > 50 µM
- EC50 [3]: 34.2 µM

SMILES: CC(=O)N[C@H](C(=O)N[C@@H](CO)C(=O)N[C@@H](Cc1ccccc1)C(=O)N[C@]1(C)CCCCCCC=CCCC[C@@](C)(C(=O)NCCCCCC(=O)N[C@@H](CCCCN)C(N)=O)NC(=O)[C@H](CC(C)C)NC(=O)[C@H](CC(C)C)NC(=O)[C@H](C)NC(=O)[C@H](Cc2c[nH]c3ccccc23)NC(=O)[C@H](Cc2ccc(O)cc2)NC(=O)[C@H](CCC(=O)O)NC1=O)[C@@H](C)O [MP-164]
- LDH: Cytotoxicity assay % Effect (HCT116 cells): 4.255%
- EC50 [1]: > 50 µM
- TETCHO: Counterscreen % Effect [2]: 0.7814%
- EC50 [2]: > 50 µM
- EC50 [3]: 7.83 µM

SMILES: CC(=O)N[C@H](C(=O)N[C@@H](CO)C(=O)N[C@@H](Cc1ccccc1)C(=O)N[C@]1(C)CCCCCCC=CCCC[C@@](C)(C(=O)N[C@@H](CCC(=O)O)C(=O)N[C@@H](CC(N)=O)C(=O)N[C@@H](Cc2ccccc2)C(N)=O)NC(=O)[C@H](CC(C)C)NC(=O)[C@H](CC(C)C)NC(=O)[C@H](C)NC(=O)[C@H](Cc2c[nH]c3ccccc23)NC(=O)[C@H](Cc2ccc(O)cc2)NC(=O)[C@H](CCC(=O)O)NC1=O)[C@@H](C)O [MP-1169]
- LDH: Cytotoxicity assay % Effect (HCT116 cells): 37.3%
- EC50 [1]: 34.1 µM
- TETCHO: Counterscreen % Effect [2]: 11.25%
- EC50 [2]: > 50 µM
- EC50 [3]: 5.34 µM
